{
  "source": "patent US7179613B2",
  "about": "“Methods of screening for a candidate modulator of glucokinase” (Vanderbilt University, priority 2003, dated 2007)",
  "molecules": {"B1": {"name": "GK-C371S: glucokinase with cysteine 371 mutated to serine; recombinant His-tagged, or YFP-tagged in cells (protein, UniProt P35557 1-465, looked up, variant C371S)", "Hexokinase-4": "MLDDRARMEAAKKEKVEQILAEFQLQEEDLKKVMRRMQKEMDRGLRLETHEEASVKMLPTYVRSTPEGSEVGDFLSLDLGGTNFRVMLVKVGEGEEGQWSVKTKHQMYSIPEDAMTGTAEMLFDYISECISDFLDKHQMKHKKLPLGFTFSFPVRHEDIDKGILLNWTKGFKASGAEGNNVVGLLRDAIKRRGDFEMDVVAMVNDTVATMISCYYEDHQCEVGMIVGTGCNACYMEEMQNVELVEGDEGRMCVNTEWGAFGDSGELDEFLLEYDRLVDESSANPGQQLYEKLIGGKYMGELVRLVLLRLVDENLLFHGEASEQLRTRGAFETRFVSQVESDTGDRKQIYNILSTLGLRPSTTDCDIVRRASESVSTRAAHMCSAGLAGVINRMRESRSEDVMRITVGVDGSVYKLHPSFKERFHASVRRLTPSCEITFIESEEGSGRGAALVSAVACKKACMLGQ", "modifications": "His tag or YFP fusion", "notes": "glucokinase with cysteine 371 mutated to serine; recombinant His-tagged, or YFP-tagged in cells"}, "B2": {"name": "C364S: glucokinase with cysteine 364 mutated to serine, YFP-tagged construct (protein, UniProt P35557 1-465, looked up, variant C364S)", "Hexokinase-4": "MLDDRARMEAAKKEKVEQILAEFQLQEEDLKKVMRRMQKEMDRGLRLETHEEASVKMLPTYVRSTPEGSEVGDFLSLDLGGTNFRVMLVKVGEGEEGQWSVKTKHQMYSIPEDAMTGTAEMLFDYISECISDFLDKHQMKHKKLPLGFTFSFPVRHEDIDKGILLNWTKGFKASGAEGNNVVGLLRDAIKRRGDFEMDVVAMVNDTVATMISCYYEDHQCEVGMIVGTGCNACYMEEMQNVELVEGDEGRMCVNTEWGAFGDSGELDEFLLEYDRLVDESSANPGQQLYEKLIGGKYMGELVRLVLLRLVDENLLFHGEASEQLRTRGAFETRFVSQVESDTGDRKQIYNILSTLGLRPSTTDSDIVRRACESVSTRAAHMCSAGLAGVINRMRESRSEDVMRITVGVDGSVYKLHPSFKERFHASVRRLTPSCEITFIESEEGSGRGAALVSAVACKKACMLGQ", "modifications": "YFP fusion", "notes": "glucokinase with cysteine 364 mutated to serine, YFP-tagged construct"}},
  "key": {"[1]": {"target": "T1, GK association with nNOS (Mus musculus, UniProt P52792)", "T1 construct": "the inventors immunoprecipitated endogenous GK from cell lysates; endogenous in cells; host or cells: βTC3 cells", "T1 sequence (P52792 1-465)": "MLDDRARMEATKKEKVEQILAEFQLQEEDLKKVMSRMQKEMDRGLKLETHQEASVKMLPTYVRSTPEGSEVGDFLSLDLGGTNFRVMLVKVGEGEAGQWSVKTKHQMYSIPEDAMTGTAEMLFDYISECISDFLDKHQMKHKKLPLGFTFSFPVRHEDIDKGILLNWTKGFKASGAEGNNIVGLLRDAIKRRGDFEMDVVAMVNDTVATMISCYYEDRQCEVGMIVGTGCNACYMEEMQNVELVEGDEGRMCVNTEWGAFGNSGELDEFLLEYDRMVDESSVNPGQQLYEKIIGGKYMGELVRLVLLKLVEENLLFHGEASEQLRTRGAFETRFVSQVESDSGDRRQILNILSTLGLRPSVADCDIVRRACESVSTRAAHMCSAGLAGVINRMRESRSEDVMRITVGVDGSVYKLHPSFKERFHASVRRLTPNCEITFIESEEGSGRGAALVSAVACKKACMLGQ", "assay_type": "binding", "details": "1 mM DEANO in PBS, 37° C., 10 min"}, "[2]": {"system": "GK association with nNOS", "assay_type": "binding", "details": "1 mM DEANO in PBS, 37° C., 10 min"}, "[3]": {"system": "βTC3 cells", "test": "NO production in βTC3 cells loaded with DAF-FM (confocal microscopy)", "assay_type": "cell-based", "details": "βTC3 cells starved 4 h, 100 nM insulin vs untreated cells", "description": "(§1) Cell culture. βTC3 cells were cultured as described (Rizzo et al., 2002) and were transferred to media containing 1 g/L glucose overnight prior to observation. […] For FRAP, CFP-GK-YFP FRET, and nitrosylation experiments, DNA plasmids containing GK-YFP constructs, proinsulin-CFP, or CFP-GK-YFP were introduced by electroporation prior to seeding as previously described (Rizzo et al., 2002). For studies requiring co-transfection, plasmid DNA encoding the indicated constructs were transfected using either a ratio of (2 μg nNOS-CFP:1 μg GK-YFP:6 μl FUGENE (Roche Applied Science)) or of (1 μg nNOS-CFP-nuc:2 μg GK-YFP:6 μl FUGENE). Transfection was for 4 h in serum-free media, followed by replacement with low-glucose media. Observation took place the following day.\nMicroscopy. βTC3 cells were labeled with 5 μM DAF-FM diacetate (Molecular Probes) for 25 min at 25° C. in BSA free BMHH. Observation was with 488 nm excitation and 505–530 nm collection by laser scanning confocal microscopy (Zeiss LSM510). During observation, cells were heated to 32° C. using a Bioptechs Delta T system. […] Statistical significance (p<0.05 by ANOVA or t-test as appropriate) is denoted by * and was determined from at least three granules in the same region or at least three cells for the FRET studies as compared to pre-treatment FRET ratios. […]"}, "[4]": {"system": "GK", "test": "Detection of S-nitrosylated GK (biotinylation, neutravidin-agarose or immunoprecipitation, Western blot)", "assay_type": "cell-based", "details": "for Nitrosylated GK in neutravidin precipitates: βTC3 cell lysates, insulin alone or L-NAME in addition to insulin; for S-nitrosylation of mutant GK-YFP: mutant GK-YFP constructs expressed in βTC3 cells", "description": "Detection of nitrosylated proteins. S-nitrosylated proteins were biotinylated and isolated from cell lysates using the protocol described (Jaffrey et al., 2001). Briefly, cells were lysed in HEN buffer (250 mM Hepes pH7.7, 1 mM EDTA, 0.1 mM neocuproine) using 0.5% triton X-100 and 0.5% Cholate prior to protection of free cysteines with methyl methanethiosulfonate (Pierce) and derivatization of S-nitrosylated cysteines with ascorbic acid and biotin-HPDP (Pierce). Biotinylated proteins were either isolated by binding to neutravidin-agarose (Pierce), followed by 5 washes with a high salt buffer (20 mM Hepes pH 7.7, 600 mM NaCl, 1 mM EDTA and 0.5% Triton X-100) and elution in HNE buffer (20 mM Hepes pH 7.7, 100 mM NaCl, 1 mM EDTA) plus 100 mM 2-mercaptoethanol. Alternatively, GK-YFPs were isolated by immunopreciptation with A.V. Peptide Antibody (BD BioSciences Clontech) preconjugated to IgG agarose (Sigma). Western blots were then performed on eluted proteins to detect GK and nitrosylated proteins."}, "[5]": {"system": "GK", "test": "Intramolecular FRET of CFP-GK-YFP (GK conformation)", "assay_type": "cell-based", "details": "5 min; for Insulin-stimulated changes in FRET of mutant CFP-GK-YFP: 100 nM insulin", "description": "as §1\n(§2) Microscopy. βTC3 cells were labeled with 5 μM DAF-FM diacetate (Molecular Probes) for 25 min at 25° C. in BSA free BMHH. Observation was with 488 nm excitation and 505–530 nm collection by laser scanning confocal microscopy (Zeiss LSM510). During observation, cells were heated to 32° C. using a Bioptechs Delta T system. FRAP and intramolecular FRET measurements were performed on cultured βTC3 cells as previously described (Rizzo et al., 2002). Statistical significance (p<0.05 by ANOVA or t-test as appropriate) is denoted by * and was determined from at least three granules in the same region or at least three cells for the FRET studies as compared to pre-treatment FRET ratios. Data shown is representative of at least 3 independent trials. Observation of nNOS-CFP-nuc and GK-YFP were performed using the same filter settings as the FRAP measurements. FRET between nNOS-CFP and GK-YFP was observed using 864 nm two-photon excitation along with a KP700/514 main beam splitter and standard CFP and YFP collection using a 40×, 1.3NA F-FLUAR oil immersion objective lens. For the FRET measurements, the temperature was maintained at 37° C. using a Zeiss S-M incubator controlled by the CTI temperature regulator along with humidification and an objective heater."}, "[6]": {"system": "interaction between nNOS and GK", "test": "FRET between nNOS-CFP and GK-YFP in living cells (two-photon microscopy)", "assay_type": "cell-based, rat", "details": "insulin 100 nM", "description": "as §1\nGeneration of constructs. […]\nMicroscopy. βTC3 cells were labeled with 5 μM DAF-FM diacetate (Molecular Probes) for 25 min at 25° C. in BSA free BMHH. […] Statistical significance (p<0.05 by ANOVA or t-test as appropriate) is denoted by * and was determined from at least three granules in the same region or at least three cells for the FRET studies as compared to pre-treatment FRET ratios. […]"}, "[7]": {"system": "GK", "test": "FRAP of GK-YFP to CFP-labeled insulin granules (GK association with secretory granules)", "assay_type": "cell-based", "details": "for Insulin-stimulated FRAP of mutant GK-YFP to CFP labeled granules: βTC3 cells, mutant GK-YFP and proinsulin-CFP", "description": "as §1, §2"}},
  "data": [
    {"molecule": "CCN(CC)/[N+]([O-])=N/O.CCNCC", "note": "[DEANO, diethylamine nitric oxide]", "values": [
      {"measurement": "Elution of nNOS from endogenous GK and GK-YFP precipitates", "setting": "[1]", "result": "resulted in elution of nNOS"},
      {"measurement": "Elution of nNOS from GK(C371S)-YFP precipitates", "setting": "[2]", "result": "not from GK(C371S)-YFP precipitates"}
    ]},
    {"molecule": "insulin", "values": [
      {"measurement": "NO production (fluorescence of DAF-FM)", "setting": "[3]", "result": "rapid increase in the fluorescence of DAF-FM"},
      {"measurement": "Nitrosylated GK in neutravidin precipitates", "setting": "[4]", "result": "detected"},
      {"measurement": "FRET ratio between CFP and YFP on opposing ends of GK", "setting": "[5]; βTC3 cells, insulin 100 nM", "result": "decreases"},
      {"measurement": "FRET between nNOS-CFP and GK(C371S)-YFP", "setting": "[6]", "result": "increased"},
      {"measurement": "FRET between nNOS-CFP and GK-YFP", "setting": "[6]", "result": "decrease"}
    ]},
    {"molecule": "CC(=O)N[C@H](C(=O)O)C(C)(C)SN=O", "note": "[SNAP, S-nitroso-N-acetylpenicillamin]", "values": [
      {"measurement": "Reversal of NOS inhibition in GK-YFP FRAP", "setting": "[7]; SNAP 100 μM, 1 min, after L-NAME and insulin", "result": "effects of NOS inhibition were reversed"}
    ]},
    {"molecule": "COC(=O)[C@@H](N)CCCNC(=N)N[N+](=O)[O-]", "note": "[L-NAME, N^G-nitro-L-arginine-methyl ester, reference compound]", "values": [
      {"measurement": "Nitrosylated GK in neutravidin precipitates", "setting": "[4]", "result": "not"},
      {"measurement": "Effect on insulin-induced decrease of the CFP-GK-YFP FRET ratio", "setting": "[5]; L-NAME 5 mM, 10 min before insulin 100 nM", "result": "prevented the decrease in the FRET ratio"},
      {"measurement": "Effect on insulin-stimulated GK-YFP FRAP", "setting": "[7]; L-NAME 5 mM, 10 min pretreatment, then insulin 100 nM, 5 min", "result": "blocked the stimulatory effects of insulin on GK-YFP FRAP"},
      {"measurement": "Glucose stimulated activation of GK FRAP and FRET", "setting": "[7]; treatment with L-NAME, data not shown", "result": "sensitive"}
    ]},
    {"molecule": "B1", "values": [
      {"measurement": "S-nitrosylation of mutant GK-YFP", "setting": "[4]", "result": "eliminated GK nitrosylation"},
      {"measurement": "Insulin-stimulated changes in FRET of mutant CFP-GK-YFP", "setting": "[5]; βTC3 cells", "result": "stopped"},
      {"measurement": "Insulin-stimulated FRAP of mutant GK-YFP to CFP labeled granules", "setting": "[7]", "result": "stopped insulin-stimulated FRAP"}
    ]},
    {"molecule": "B2", "values": [
      {"measurement": "S-nitrosylation of mutant GK-YFP", "setting": "[4]", "result": "slight decrease in the amount of nitrosylated GK"},
      {"measurement": "Insulin-stimulated changes in FRET of mutant CFP-GK-YFP", "setting": "[5]; βTC3 cells", "result": "did not have a significant effect"},
      {"measurement": "Insulin-stimulated FRAP of mutant GK-YFP to CFP labeled granules", "setting": "[7]", "result": "did not have a significant effect"}
    ]}
  ]
}
